Results from patent US9474275B2, “Cyanoenamines and their use as fungicides” (priority 2010, dated 2016).
Marks after values point to notes of the source that are not given here.

What was measured:
[1] = tested on: Plasmopara viticola; test: Plasmopara test (grapevines) / preventive; type: in vivo; conditions: grapevine plants, preventive spray, 100 ppm of active ingredient, evaluated 6 days after inoculation; 0% = untreated control, 100% = no disease
Method: Solvent: 24.5 parts by weight of acetone • 24.5 parts by weight of dimethylacetamide
Emulsifier: 1 part by weight of alkylaryl polyglycol ether
To produce a suitable preparation of active compound, 1 part by weight of active compound is mixed with the stated amounts of solvent and emulsifier, and the concentrate is diluted with water to the desired concentration. To test for preventive activity, young plants are sprayed with the preparation of active compound at the stated rate of application. After the spray coating has dried on, the plants are inoculated with an aqueous spore suspension of Plasmopara viticola and then remain for 1 day in an incubation cabinet at approximately 20° C. and a relative atmospheric humidity of 100%. The plant is subsequently placed for 4 days in a greenhouse at approximately 21° C. and a relative atmospheric humidity of approximately 90%. The plants are then misted and placed for 1 day in an incubation cabinet. The test is evaluated 6 days after the inoculation. 0% means an efficacy which corresponds to that of the untreated control, while an efficacy of 100% means that no disease is observed.

[2] = tested on: Phytophthora infestans; type: in vivo; conditions: tomato plants, preventive spray, 500 ppm of active ingredient, evaluated 7 days after inoculation; 0% = untreated control, 100% = no disease
[3] = pH 2.7
Method: Measurement of log P values was performed according EEC directive 79/831 Annex V.A8 by HPLC (High Performance Liquid Chromatography) on reversed phase columns with the following methods:
^[a] measurement of LC-MS was done at pH 2.7 with 0.1% formic acid in water and with acetonitrile (contains 0.1% formic acid) as eluent with a linear gradient from 10% acetonitrile to 95% acetonitrile.

Question: For `CC(NC(=C(C#N)C(=O)CC1CC1)c1cn(C)nc1C(F)F)C1CC1` (stereo not drawn) [Compound 64], which efficacy [1] is on record?
Answer: 94%

Question: And the efficacy [2]?
Answer: 98%

Question: And the LogP [3]?
Answer: 3.04^[a]

Question: For `CC=CC(=O)C(C#N)=C(NC(C)C(C)C)c1cccnc1Cl` (stereo not drawn) [Compound 75], which efficacy [1] is on record?
Answer: 88%

Question: What about the efficacy [2] of the same compound?
Answer: 90%

Question: What about the LogP [3] of the same compound?
Answer: 3.35^[a]

Question: Which efficacy [1] does the source give for `CCCC(=O)C(C#N)=C(NC(C)c1nccs1)c1cn(C)nc1C(F)F` (stereo not drawn) [Compound 80] here?
Answer: 94%

Question: What about the efficacy [2] of the same compound?
Answer: 95%

Question: And the LogP [3]?
Answer: 2.59^[a]

Question: For `CC(NC(=C(C#N)C(=O)CC1CC1)c1cn(C)nc1C(F)F)c1nccs1` (stereo not drawn) [Compound 81], which efficacy [1] is on record?
Answer: 92%

Question: And the efficacy [2]?
Answer: 95%

Question: And the LogP [3]?
Answer: 2.59^[a]

Question: Which efficacy [1] does the source give for `CCCC(=O)C(C#N)=C(NC(C)C(C)(C)C)c1cn(C)nc1C(F)F` (stereo not drawn) [Compound 84] here?
Answer: 89%

Question: And the efficacy [2]?
Answer: 100%

Question: And the LogP [3]?
Answer: 3.55^[a]

Question: Which efficacy [1] does the source give for `CCCC(=O)C(C#N)=C(NC(C)c1ccsn1)c1cn(C)nc1C(F)F` (stereo not drawn) [Compound 88] here?
Answer: 100%

Question: What about the efficacy [2] of the same compound?
Answer: 97%

Question: What about the LogP [3] of the same compound?
Answer: 2.73^[a]

Question: With `CCCC(=O)C(C#N)=C(NC(C)C(C)C)c1ccc(Cl)nc1Cl` (stereo not drawn) [Compound 90] as the compound, how does the efficacy [1] read?
Answer: 96%

Question: And the efficacy [2]?
Answer: 97%

Question: And the LogP [3]?
Answer: 4.31^[a]

Question: With `CCCC(=O)C(C#N)=C(NC(C)COC)c1ccnn1C(F)F` (stereo not drawn) [Compound 98] as the compound, how does the efficacy [1] read?
Answer: 94%

Question: And the efficacy [2]?
Answer: 100%

Question: And the LogP [3]?
Answer: 2.73^[a]
